Data from patent publication US20130172191A1, “STABLE ETHYLENE INHIBITING COMPOUNDS AND METHODS FOR THEIR PREPARATION” (priority 2002, published 2013).

Assays:
[1] = Control experiment: 1,2-diiodo-1-methylcyclopropane in tetrahydrofuran without reagent, GC of headspace; format: physicochemical; conditions: 0.30 g in 2 ml tetrahydrofuran, no reagent, stirring 5 minutes; 1 ppm easily detectable
Procedure: (§1) Into a 50 ml Florence flask with magnetic stirring was placed 2 ml of tetrahydrofuran and 0.30 g of 1,2-diiodo-1-methylcyclopropane. […] GC method uses Varian CP-PoraBOND Q column 10 meters long 0.32 mm ID; helium carrier; initial temperature 50° C.; initial time 0 minutes; ramp rate 20° C./min; final temperature 270° C.; final time 5 minutes; injection volume 0.20 ml. The retention time of an authentic sample of 1-methylcyclopropene was 2.91 minutes. 1 ppm is easily detectable under these conditions.

[2] = Chemically induced release of a cyclopropene (1-methylcyclopropene) by a reducing or nucleophilic agent, GC of headspace; format: physicochemical
Procedure: as §1
Into a 100 ml Florence flask with magnetic stirring was placed 2 ml of tetrahydrofuran and 1.0 g of zinc dust. The zinc was activated with 10 drops of 1,2-dibromoethane. Then 0.34 g of 1,2-diiodo-1-methylcyclopropane was added.
Into a 100 ml Florence flask with magnetic stirring was placed 2 ml of methanol and 1.0 g of zinc dust. The zinc was activated with 10 drops of 1,2-dibromoethane. Then 0.34 g of 1,2-diiodo-1-methylcyclopropane was added.
Into a 100 ml Florence flask with magnetic stirring was placed 2 ml of tetrahydrofuran and 1.1 g of magnesium turnings. The magnesium was activated with 10 drops of 1,2-dibromoethane. Then 0.35 g of 1,2-diiodo-1-methylcyclopropane was added.
Into a 50 ml Florence flask with magnetic stirring was placed 3 g of dimethylformamide and 1.2 g of triphenylphosphine. Then 0.83 g of 1,2-diiodo-1-methylcyclopropane was added.
Into a 100 ml Florence flask with magnetic stirring was placed 2 g of dimethylformamide, 0.70 g of potassium t-butoxide, and 0.84 g of 4-methylbenzenethiol. Then 0.40 g of 1,2-diiodo-1-methylcyclopropane was added.
The polymeric reagent was prepared by slurrying 50 ml of Duolite™ GT73 (Rohm and Haas Company) and stirring for two hours with 50 ml of water and 10 g of 45% aqueous potassium hydroxide. The slurry was filtered, washed twice with water, thrice with methanol, air dried, and placed in a vacuum oven overnight. 0.54 g of this polymeric reagent was placed in a 122 ml vial and the beads were wetted with 0.10 g of 1,2-diiodo-1-methylcyclopropane in 0.70 g of methanol.

SMILES: CC1(I)CC1I (stereo not shown) [Example 60, 1,2-diiodo-1-methylcyclopropane]
- 1-methylcyclopropene in headspace (GC analysis) [1]: no detectable 1-methylcyclopropene
- 1-methylcyclopropene in headspace (GC analysis) ([2]; 4-methylbenzenethiol 0.84 g, potassium t-butoxide 0.70 g in 2 g dimethylformamide, 0.40 g precursor, 100 ml flask, 15 minutes at room temperature): 87567 ppm
- 1-methylcyclopropene in headspace (GC analysis) ([2]; magnesium turnings 1.1 g (activated with 1,2-dibromoethane) in 2 ml tetrahydrofuran, 0.35 g precursor, 100 ml flask, stirring 3 hours): 49993 ppm
- 1-methylcyclopropene in headspace (GC analysis) ([2]; polymeric benzenethiol reagent (Duolite GT73, KOH treated) 0.54 g, 0.10 g precursor in 0.70 g methanol, 122 ml vial, overnight at room temperature): 134 ppm
- 1-methylcyclopropene in headspace (GC analysis) ([2]; triphenylphosphine 1.2 g in 3 g dimethylformamide, 0.83 g precursor, 50 ml flask, 15 minutes at room temperature): 10 ppm
- 1-methylcyclopropene in headspace (GC analysis) ([2]; zinc dust 1.0 g (activated with 1,2-dibromoethane) in 2 ml methanol, 0.34 g precursor, 100 ml flask, stirring 30 minutes): 98390 ppm
- 1-methylcyclopropene in headspace (GC analysis) ([2]; zinc dust 1.0 g (activated with 1,2-dibromoethane) in 2 ml tetrahydrofuran, 0.34 g precursor, 100 ml flask, stirring 20 hours): 4658 ppm
